Source: patent US9169241B2, “Quinolinyloxyphenylsulfonamides” (Max-Planck-Gesellschaft Zur Forderung der Wissenschaften …, priority 2009, dated 2015)
pIC50: −log10 of the molar value.

Legend:
[1] = system: Hs578T; assay: Wound healing migration assay; type: cell-based; conditions: Homo sapiens, Hs-578T; HS578T cell line; Table Ib
In short: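 Compound exposure at 12.5, 6.25 and 3.125 μM, with DMSO control, on scratch-wounded monolayers (150000 cells/24 well, overnight). Wound closure imaged by microscopy, fixed with crystal violet after 48 h or 72 h depending on cell line; IC50 is the concentration giving 50% wound size between t0 and t48/t72.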

[2] = target: T1, wild type AXL (wtAXL) receptor tyrosine kinase (Homo sapiens, UniProt P30530); assay: NIH-3T3-AXL cellular kinase assay (pY-AXL-ELISA); type: cell-based; conditions: NIH-3T3-AXL (clone 22) cells, serum depleted, compounds 1 h; Table Ia
T1 construct: WtAXL cDNA was cloned into vector pLXSN(ESK) and transfected into Phoenix E packaging cells; expressed in transfected cells; host or cells: NIH3T3 N7 (mouse fibroblasts), retrovirally infected, clone 22
T1 sequence (P30530 26-894): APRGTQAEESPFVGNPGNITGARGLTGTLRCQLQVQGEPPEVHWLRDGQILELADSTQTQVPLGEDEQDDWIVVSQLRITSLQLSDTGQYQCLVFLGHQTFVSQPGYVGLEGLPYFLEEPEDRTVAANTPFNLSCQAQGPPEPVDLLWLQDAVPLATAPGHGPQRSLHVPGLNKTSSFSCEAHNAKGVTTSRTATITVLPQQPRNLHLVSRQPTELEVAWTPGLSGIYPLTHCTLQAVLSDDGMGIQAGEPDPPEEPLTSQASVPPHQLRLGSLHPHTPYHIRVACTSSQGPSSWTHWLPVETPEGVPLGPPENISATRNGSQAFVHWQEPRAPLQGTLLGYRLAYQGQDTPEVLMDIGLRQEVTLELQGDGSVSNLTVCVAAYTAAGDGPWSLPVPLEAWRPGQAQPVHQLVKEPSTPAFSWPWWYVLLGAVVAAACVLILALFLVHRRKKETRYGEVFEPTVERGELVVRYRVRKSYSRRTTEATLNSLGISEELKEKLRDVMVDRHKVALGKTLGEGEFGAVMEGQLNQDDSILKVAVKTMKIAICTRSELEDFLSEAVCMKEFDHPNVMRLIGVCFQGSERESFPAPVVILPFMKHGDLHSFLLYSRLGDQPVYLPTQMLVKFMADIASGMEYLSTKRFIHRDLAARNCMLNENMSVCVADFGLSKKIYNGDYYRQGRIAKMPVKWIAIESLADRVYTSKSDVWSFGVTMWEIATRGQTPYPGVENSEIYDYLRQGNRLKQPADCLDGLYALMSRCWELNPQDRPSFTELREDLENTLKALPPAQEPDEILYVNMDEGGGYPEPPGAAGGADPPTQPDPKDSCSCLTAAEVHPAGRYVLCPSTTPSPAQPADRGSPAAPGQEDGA
Experimental: WtAXL cDNA was cloned into vector pLXSN(ESK) and transfected into Phoenix E packaging cells. The viral supernatant was collected and used to infect target cells NIH3T3 N7. Monoclonal NIH3T3-AXL cell lines stably expressing wtAXL were generated by selecting retrovirally infected cells in medium containing puromycin (2 μg/ml) and subsequent clonal separation.
Serial dilutions of compounds were added, and the cells were further incubated for 1 h. Cells were washed with PBS and lysed on ice in 500 μl lysis buffer (50 mM HEPES (pH 7.5), 150 mM NaCl, 1 mM EGTA, 10% Glycerol, 1% Triton X-100, 100 mM NaF, 10 mM Na4P2O7.10H2O, 1 mM Na3VO4, 1 mM phenylmethylsulfonyl fluoride, and […]) for 15 min. The cell lysate were used for phosphotyrosine AXL enzyme-linked immunosorbant assay (pY-AXL-ELISA). […] Subsequently 96-well plates were blocked with PBS-0.05% Tween®20+10% FBS for 4 h at 37° C. Plates were washed 5 times with PBS-0.05% Tween®20 and 95 μl of lysate was transferred per well for incubation overnight at 4° C. Plates were washed 5 times with PBS-0.05% Tween®20 (Sigma, Steinheim, Germany). For detection of phosphorylated tyrosine we used homemade biotynilated 4G10-antibody (0.5 μg/ml) in PBS-0.05% Tween®20+10% FBS (100 μl/well) and incubated the 96-well plate for 2 h at room temperature. The anti-phosphotyrosine mouse monoclonal antibody 4G10 was biotynilated with Sulfo-NHS®-Biotin according to the suppliers protocol (Pierce, Rockford, Ill., USA) and purified by Mirco Bio-Spin 6 Chromatograpy Columns (BIO RAD Laboratories, Inc., Hercules, Calif., USA) using PBS as diluent. Plates were washed 5 times with PBS-0.05% Tween®20. For biding to biotin Alkaline Phosphatase Conjugated Strepavidin SA110 (Millipore, Billerica, Mass., USA) (1:4000) was used in PBS-0.05% Tween20+10% FBS (100 μl/well) and incubated for 30 min at room temperature. Plates were washed 5 times with PBS-0.05% Tween20. For fluorimetric detection of alkaline phosphatase AttoPhos Substrate Set (Roche diagnostics GmbH, Mannheim, Germany) was used (100 μl/well). The fluorimetric signal was quantified after 90 min at 430/560 nm wavelength using a TECAN Ultra Evolution plate reader (Tecan Deutschland GmbH, Crailsheim, Germany).

[3] = system: Hs578T; assay: Matrigel outgrowth assay/branching assay; type: cell-based; conditions: Homo sapiens, Hs-578T; HS578T cell line; Table Ib; read-out: Total branching inhibition in Matrigel HS578T
In short: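 Matrigel 3 mg/ml, polymerized 1 h 37° C; 5000 cells/well + cmpd 3.125/1.56/0.78 μM or DMSO. Imaged 48/72/96 h, 5× objective. Positive = total branching block.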

[4] = system: Hs578T; assay: Cell vitality assay (ATP assay, CellTiter-Glo); type: cell-based; conditions: Homo sapiens, Hs-578T; HS578T cell line, 72 h; Table Ib; read-out: IC50 ATP-Assay HS578T after 72 h
In short: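 ATP-based luminescence (CellTiter-Glo) after 72 h exposure of 1000 cells/well to seven compound concentrations from 0.195 to 12.5 μM. IC50 defined as concentration reducing ATP to 50% of DMSO control.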

| SMILES | pIC50 [1] | pIC50 [2] | pIC50 [3] | melting point [°C] | pIC50 [4] |
| --- | --- | --- | --- | --- | --- |
| COc1cc2c(Oc3ccc(NS(=O)(=O)c4cccc(C(F)(F)F)c4)cc3F)ccnc2cc1OCCCN1CCCCC1 [Example 5, N-{3-Fluoro-4-[6-methoxy-7-(3-piperidin-1-yl-propoxy)-quinolin-4-yloxy]-phenyl}-3-trifluoromethyl-benzenesulfonamide] | 4.30 to 4.90 | > 6.30 | 4.60 to 5.00 | 123 to 126 | ≥ 4.90 |
| COc1cc2c(Oc3ccc(NS(=O)(=O)c4cccc(OC(F)F)c4)cc3F)ccnc2cc1OCCCN1CCCCC1 [Example 9, 3-Difluoromethoxy-N-{3-fluoro-4-[6-methoxy-7-(3-piperidin-1-yl-propoxy)-quinolin-4-yloxy]-phenyl}-benzenesulfonamide] | 4.30 to 4.90 | > 6.30 | 4.60 to 5.00 | 105 to 106 | ≥ 4.90 |
| COc1cc2c(Oc3ccc(NS(=O)(=O)c4ccccc4)cc3F)ccnc2cc1OCCCN1CCCC(C)C1 (centres unmarked) [Example 36, N-(3-Fluoro-4-{6-methoxy-7-[3-(3-methyl-piperidin-1-yl)-propoxy]-quinolin-4-yloxy}-phenyl)-benzenesulfonamide] | 4.30 to 4.90 | > 6.30 | 4.60 to 5.00 | 160 to 161 | ≥ 4.90 |
| COc1cc2c(Oc3ccc(NS(=O)(=O)c4cccc(F)c4)cc3F)ccnc2cc1OCCCN1CCCC(C)C1 (centres unmarked) [Example 37, 3-Fluoro-N-(3-fluoro-4-{6-methoxy-7-[3-(3-methyl-piperidin-1-yl)-propoxy]-quinolin-4-yloxy}-phenyl)-benzenesulfonamide] | 4.30 to 4.90 | > 6.30 | 4.60 to 5.00 | 113 to 115 | ≥ 4.90 |
| COc1cc2c(Oc3ccc(NS(=O)(=O)c4cccc(OC(F)F)c4)cc3F)ccnc2cc1OCCCN1CCCC(C)C1 (centres unmarked) [Example 43, 3-Difluoromethoxy-N-(3-fluoro-4-{6-methoxy-7-[3-(3-methyl-piperidin-1-yl)-propoxy]-quinolin-4-yloxy}-phenyl)-benzenesulfonamide] | ≥ 4.90 | > 6.30 | ≥ 5.00 | 99 to 100 | ≥ 4.90 |
| COc1cc2c(Oc3ccc(NS(=O)(=O)c4ccccc4C)cc3F)ccnc2cc1OCCCN1CCCC(C)C1 (centres unmarked) [Example 44, N-(3-Fluoro-4-{6-methoxy-7-[3-(3-methyl-piperidin-1-yl)-propoxy]-quinolin-4-yloxy}-phenyl)-2-methyl-benzenesulfonamide] | ≥ 4.90 | > 6.30 | ≥ 5.00 | 99 to 100 | ≥ 4.90 |
| COc1cc2c(Oc3ccc(NS(=O)(=O)c4cccc(OC(F)(F)F)c4)cc3F)ccnc2cc1OCCCN1CCCC(C)C1 (centres unmarked) [Example 46, N-(3-Fluoro-4-{6-methoxy-7-[3-(3-methyl-piperidin-1-yl)-propoxy]-quinolin-4-yloxy}-phenyl)-3-trifluoromethoxy-benzenesulfonamide] | ≥ 4.90 | > 6.30 | ≥ 5.00 | 102 to 104 | ≥ 4.90 |
| COc1cc2c(Oc3ccc(NS(=O)(=O)c4c(F)cccc4F)cc3Cl)ccnc2cc1OCCCN1CCN(C)CC1 [Example 118, N-(3-Chloro-4-{6-methoxy-7-[3-(4-methyl-piperazin-1-yl)-propoxy]-quinolin-4-yloxy}-phenyl)-2,6-difluoro-benzenesulfonamide] | – | > 6.30 | – | 122 to 124 | – |
| COc1ccc2nccc(Oc3ccc(NS(=O)(=O)c4c(F)cccc4F)cc3F)c2c1 [Example 200, 2,6-Difluoro-N-[3-fluoro-4-(6-methoxy-quinolin-4-yloxy)-phenyl]-benzenesulfonamide] | 4.30 to 4.90 | – | 4.60 to 5.00 | 227 to 228 | 4.30 to 4.90 |
| COc1ccc2nccc(Oc3ccc(NS(=O)(=O)c4cc(Cl)ccc4Cl)cc3F)c2c1 [Example 203, 2,5-Dichloro-N-[3-fluoro-4-(6-methoxy-quinolin-4-yloxy)-phenyl]-benzenesulfonamide] | ≥ 4.90 | – | 4.60 to 5.00 | 253 to 255 | ≥ 4.90 |
| COc1ccc2nccc(Oc3ccc(NS(=O)(=O)c4c(Cl)cccc4Cl)cc3F)c2c1 [Example 204, 2,6-Dichloro-N-[3-fluoro-4-(6-methoxy-quinolin-4-yloxy)-phenyl]-benzenesulfonamide] | 4.30 to 4.90 | – | 4.60 to 5.00 | 219 to 221 | 4.30 to 4.90 |
| COc1ccc2nccc(Oc3ccc(NS(=O)(=O)c4ccc5ccccc5c4)cc3F)c2c1 [Example 205, Naphthalene-2-sulfonic acid [3-fluoro-4-(6-methoxy-quinolin-4-yloxy)-phenyl]-amide] | 4.30 to 4.90 | – | 4.60 to 5.00 | 220 to 222 | 4.30 to 4.90 |
| COc1ccc2nccc(Oc3ccc(NS(=O)(=O)C4CC4)cc3F)c2c1 [Example 206, Cyclopropanesulfonic acid [3-fluoro-4-(6-methoxy-quinolin-4-yloxy)-phenyl]-amide] | 4.30 to 4.90 | – | 4.60 to 5.00 | 194 to 196 | 4.30 to 4.90 |
| COc1cc2c(Oc3ccc(NS(=O)(=O)c4cc(F)ccc4F)cc3F)ccnc2cc1OCCCCOC(C)=O [Example 211, Acetic acid 4-{4-[4-(2,5-difluoro-benzenesulfonylamino)-2-fluoro-phenoxy]-6-methoxy-quinolin-7-yloxy}-butyl ester] | ≥ 4.90 | – | 4.60 to 5.00 | 165 to 167 | ≥ 4.90 |
| COc1cc2c(Oc3ccc(NS(=O)(=O)c4ccccc4C(F)(F)F)cc3F)ccnc2cc1OCCCCOC(C)=O [Example 212, Acetic acid 4-{4-[2-fluoro-4-(2-trifluoromethyl-benzenesulfonylamino)-phenoxy]-6-methoxy-quinolin-7-yloxy}-butyl ester] | 4.30 to 4.90 | – | 4.60 to 5.00 | 143 to 145 | 4.30 to 4.90 |
